Reference: paper PMC4710668, “Bioactivation of food genotoxicants 5-hydroxymethylfurfural and furfuryl alcohol by sulfotransferases from human, mouse and rat: a comparative study” (Archives of Toxicology, 2014)

How the values were obtained:
hSULT4A1 = biological target: T1, hSULT4A1 (Homo sapiens, UniProt Q9BR01); assay: FFA sulfoconjugation assay (N6-MF-A formation with adenosine as scavenger); format: biochemical
T1 construct: made in house; host or cells: Salmonella typhimurium TA1538 (cytosolic fraction, not purified)
T1 sequence (Q9BR01 1-284): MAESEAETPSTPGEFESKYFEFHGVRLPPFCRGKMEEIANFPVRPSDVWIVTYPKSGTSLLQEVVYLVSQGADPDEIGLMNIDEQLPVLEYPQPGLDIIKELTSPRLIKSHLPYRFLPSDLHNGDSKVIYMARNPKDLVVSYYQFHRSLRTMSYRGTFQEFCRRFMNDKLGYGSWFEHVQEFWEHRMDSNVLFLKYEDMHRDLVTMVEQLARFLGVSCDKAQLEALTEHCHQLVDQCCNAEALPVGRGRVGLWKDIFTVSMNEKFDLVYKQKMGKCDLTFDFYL
Procedure, shortened: (§1)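 Quadruplicate incubations of FFA with SULT-expressing TA1538 cytosol and 10 mM adenosine, 20 min at 37 °C. Quantitation of N6-MF-A by UPLC-MS/MS with summed MRM signals against [15N5]N6-MF-A. Values were corrected by subtracting duplicate SULT-deficient cytosol controls.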

mSult1d1 = biological target: T2, mSult1d1 (Mus musculus, UniProt Q3UZZ6); assay: as above; format: biochemical
T2 construct: made in house; host or cells: Salmonella typhimurium TA1538 (cytosolic fraction, enzyme not purified)
Procedure, shortened: as §1

T2 sequence (Q3UZZ6 whole entry): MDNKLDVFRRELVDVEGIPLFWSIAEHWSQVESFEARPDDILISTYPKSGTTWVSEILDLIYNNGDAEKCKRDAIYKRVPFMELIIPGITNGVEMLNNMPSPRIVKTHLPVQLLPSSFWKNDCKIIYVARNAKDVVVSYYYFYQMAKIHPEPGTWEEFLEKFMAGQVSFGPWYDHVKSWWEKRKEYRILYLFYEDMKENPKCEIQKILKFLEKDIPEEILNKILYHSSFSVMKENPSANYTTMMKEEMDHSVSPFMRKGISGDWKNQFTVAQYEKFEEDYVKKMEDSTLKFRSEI

OCc1ccco1 [FFA, furfuryl alcohol]
Rate of N6-MF-A formation (hSULT4A1; 0.1 mM FFA): <18 fmol N ^6-MF-A/mg/min | Rate of N6-MF-A formation (hSULT4A1; 1 mM FFA): <20 fmol N ^6-MF-A/mg/min | Rate of N6-MF-A formation (hSULT4A1; 10 mM FFA): <44 fmol N ^6-MF-A/mg/min | Rate of N6-MF-A formation (mSult1d1; 0.1 mM FFA): 52.5 ± 1.7 fmol N ^6-MF-A/mg/min | Rate of N6-MF-A formation (mSult1d1; 1 mM FFA): 468 ± 6 fmol N ^6-MF-A/mg/min | Rate of N6-MF-A formation (corr.) (mSult1d1; 1 mM FFA, corrected by actual SULT concentration in the cytosolic preparation): 4,260 ± 60 fmol N ^6-MF-A/mg/min | Rate of N6-MF-A formation (mSult1d1; 10 mM FFA): 2,610 ± 30 fmol N ^6-MF-A/mg/min
